Experimental data published in patent publication US20230277483A1, “COMPOSITIONS AND METHODS TO TREAT INFLAMMATION” (University of Iowa Research Foundation, priority 2022, published 2023).

Tested on: DIO-mice (C57BL/6J on 60% kCal high-fat diet)
Experiment: Diet-induced obesity (DIO) mouse model, IP HCA
Assay type: in vivo
Method: Animal care and experimental procedures were performed with approval from the University of Iowa's Institutional Animal Care and Use Committee. Animals received humane care in compliance with the Guide for the Care and Use of Laboratory Animals (National Academies Press, 2011) and with the Principles of Laboratory Animal Care formulated by the National Society for Medical Research. C57BL/6J mice (The Jackson Laboratory, 000664) were kept on a 12-hour light/dark cycle. Mice used to generate the DIO model were placed on a 60% kCal high-fat diet (HFD, Research Diets, D12492) immediately after weaning (i.e., at 3 weeks of age). After 16 weeks, lean and DIO-mice were intraperitoneally (IP) injected with 0.5 uM HCA or PBS control every other day for three weeks. Body weight was measured weekly. All tissues were harvested, frozen in liquid nitrogen, and kept at −80° C. until processed.
Total RNA was isolated using TRIzol reagent (Invitrogen, 15-596-018) and reverse transcribed into cDNA using the iScript cDNA synthesis kit (Bio-Rad, 1708890). Quantitative real-time RT-PCR analysis was performed using SYBR Green (Invitrogen, KCQS00).
Proteins were extracted from cells or tissues and subjected to SDS-polyacrylamide gel electrophoresis, as previously described (Yang et al., 2015). Membranes were incubated with anti-p-AKT (Ser473, Cell Signaling, 9271); anti-AKT1 (H-136, Santa Cruz, sc-8312) or anti-ACTB (H-300, Santa Cruz, sc-10731) at 1:1000 and then incubated with the appropriate secondary antibody conjugated with horseradish peroxidase (1:5000, Santa Cruz, sc-2005 or 1:5000, Cell Signaling Technology, 7074S). Signal was detected using the ChemiDoc Touch Imaging System (Bio-Rad), and densitometric analyses of western blot images were performed using Image Lab software (Bio-Rad).
For immunohistochemistry, tissues were fixed with 4% PFA and sectioned at 5 μm thick, followed by deparaffinization and rehydration processes. Tissue sections were stained using H&E. The images were observed under a Nikon microscope (10×).
Blood samples were centrifuged (4° C., 5000 g, 30 min) to obtain serum. Ten microliters of serum per sample were required for each index analysis. Serum alanine aminotransferase (ALT) and aspartate aminotransferase (AST) were measured by commercial kits. Serum IL-1β, IL-6 and free fatty acid (FFA) content were measured by ELISA (Il-1beta, Biolegend, Cat No. 432604; Il6) or a FFA fluorometric kit (Cayman Chemical, No. 700310), respectively, and then normalized to total protein (BCA).
Whole-body energy expenditure and body composition: Respiratory exchange ratio (RER) and locomotor activity were monitored using a Comprehensive Lab Animal Monitoring System (CLAMS, Columbus Instruments) at the Fraternal Order of Eagles Metabolic Phenotypic Core. Body composition was measured by using Bruker Minispecs (LF50).
Animals were fasted for 6 hours prior to ITT. Insulin tolerance was tested by measuring glucose concentration at different time points after intraperitoneal (IP) insulin injection (0.5 U/kg body weight; Humulin R) (Qian et al., 2018).

Structure (SMILES): O=C(O)CCCCCO [HCA, 6-hydroxycaproic acid]
- liver expression of Atg1 and Cd36 (HCA vs HFD alone): increased expression
- liver expression of Hsl (HCA vs HFD alone): significantly reduced
- Serum free fatty acid (FFA) content (HCA vs HFD controls): reduced circulating levels
- fasting glucose (HFD-fed, HCA-treated): HFD-mediated effects were reduced
- pAKT in eWAT (insulin signaling) (HFD-fed, HCA-treated): increased pAKT
- insulin tolerance (ITT) (HFD-fed, HCA-treated, insulin 0.5 U/kg IP): HFD-mediated effects were reduced
- lean mass (HFD, 0.5 uM HCA IP every other day for three weeks): increased
- BW gain (HFD, 0.5 uM HCA IP every other day for three weeks, vs HFD group): significantly reduced
- eWAT RNA-seq: chemokine signaling and leukocyte migration (HFD, HCA): downregulated
- eWAT RNA-seq: fatty acid metabolism, oxidation and absorption, PPAR gamma and AMPK signaling (HFD, HCA): significantly increased
- liver Il1b transcript levels (HFD, HCA): significantly reduced
- serum IL-6, IL-1β, and leptin (HFD, HCA): reduced
- eWAT Adipoq and Ppargamma levels (HFD, HCA-treated): levels increased
- eWAT mRNA expression of Il6, Nos2 and Lep (HFD, HCA-treated): significantly reduced
- serum ALT levels (HFD, HCA-treated): reduced
- morphology of liver, iWAT and eWAT (H&E) (HFD, HCA-treated vs HFD alone): showed improvement
- activity (locomotor) (HFD, HCA-treated, CLAMS): increased activity
- respiratory exchange ratio (RER) (HFD, HCA-treated, CLAMS): shift in respiratory exchange ratio (RER) towards increased carbohydrate metabolism
- eWAT Cd36 and Gpr81 (compared to HFD controls): induced
- GPR137B, GPR176, GPR65, GPR85, and FABP7 in WAT (mRNA-seq) (obese mice treated with HCA): upregulation
- PPARγ in white adipose tissues (WAT) (obese mice, systemic administration of HCA): upregulation
